Patent US10653756B2, “Identification of CD8+ T cells that are CD161hi and/or IL18R(α)hi and have rapid drug efflux capacity” (FRED HUTCHINSON CANCER RESEARCH CENTER, priority 2008, dated 2020)
Blank lines part the entries; values can stand above or below the compound they belong to.

What was measured:
[1] = system: CMhi and EMhi CD8+ T cells; assay: Daunorubicin-induced apoptosis of sorted CM and EM subsets, Annexin V/DAPI; format: cell-based, human
Source text: CMhi and EMhi and their non-effluxing IL-18Rα^lo/neg counterparts (CMlo and EMlo) were isolated using negative immunomagnetic selection of CD8^+ T cells with biotinylated antibodies to non-CD8^+ T cells, followed by surface labeling with fluorochrome-conjugated streptavidin to identify non-CD8^+ T cells, CD95, CD62L and IL-18Rα and sorting on a BD FacsARIA flow sorter. CM and EM CD8^+ T cells were defined as streptavidin^−/CD95^+/CD62L^+ or streptavidin^−/CD95^+/CD62L^−, respectively. CMhi and EMhi were defined by high expression of IL-18Rα. Effluxing and non-effluxing CM and EM subsets were cultured for 44 hours in the presence or absence of daunorubicin (an anthracycline chemotherapeutic agent, effluxed by the ABC-B1 cotransporter, MDR-1), with or without MDR-1 blockade with the peripheral benzodiazepine receptor antagonist, PK11195. Cultures were harvested, washed twice with cold PBS and stained with Annexin V and DAPI before analysis.

MDR-1 = MDR-1 (Homo sapiens, UniProt P08183); details: daunorubicin loaded at 2.5 μM, efflux 1 hour at 37° C.; vinblastine 25 μM; PK11195 and cyclosporine A data not shown
[2] = system: CM and EM CD8+ T lymphocytes; assay: Rh123 efflux assay with or without vinblastine, flow cytometry; format: cell-based, human; details: PBMC loaded with 10 μg/ml Rh123, efflux 30 minutes at 37° C.
Procedure: PBMC were separated from fresh peripheral blood by density gradient centrifugation, washed in RPMI 1640/10% bovine serum albumin (herein known as efflux buffer) and resuspended at 1×10^6/ml in ice cold efflux buffer with 10 μg/ml Rh123. PBMC were incubated for 30 minutes on ice before washing three times in ice cold efflux buffer and resuspending in pre-warmed efflux buffer, with or without vinblastine, for 30 minutes at 37° C. At 30 minutes, PBMC were washed once in ice cold PBS/0.2% BSA (FACS buffer) and labeled with antibodies to CD4, CD16, TCRγδ, Vα24, CD3, CD8α, CD95, CD62L, CD161 and IL-18Rα for 20 minutes on ice. After washing in ice cold FACS buffer, samples were analyzed on a BD FacsARIA flow cytometer.
CM and EM subsets were identified as CD62L^+ or CD62L^− events, respectively, in the CD4^−/CD16^−/TCRγδ^−/Vα24^−/CD3^+/CD8^+/CD95^+ population. Rh123 fluorescence was identified with appropriate compensation and a 530/30 emission filter after laser excitation at 488 nm. Rh123-effluxing events were defined as those with fluorescence lower than the mean fluorescence intensity identified after culture in the presence of vinblastine efflux blockade.

MDR-1, sequence (P08183 whole entry): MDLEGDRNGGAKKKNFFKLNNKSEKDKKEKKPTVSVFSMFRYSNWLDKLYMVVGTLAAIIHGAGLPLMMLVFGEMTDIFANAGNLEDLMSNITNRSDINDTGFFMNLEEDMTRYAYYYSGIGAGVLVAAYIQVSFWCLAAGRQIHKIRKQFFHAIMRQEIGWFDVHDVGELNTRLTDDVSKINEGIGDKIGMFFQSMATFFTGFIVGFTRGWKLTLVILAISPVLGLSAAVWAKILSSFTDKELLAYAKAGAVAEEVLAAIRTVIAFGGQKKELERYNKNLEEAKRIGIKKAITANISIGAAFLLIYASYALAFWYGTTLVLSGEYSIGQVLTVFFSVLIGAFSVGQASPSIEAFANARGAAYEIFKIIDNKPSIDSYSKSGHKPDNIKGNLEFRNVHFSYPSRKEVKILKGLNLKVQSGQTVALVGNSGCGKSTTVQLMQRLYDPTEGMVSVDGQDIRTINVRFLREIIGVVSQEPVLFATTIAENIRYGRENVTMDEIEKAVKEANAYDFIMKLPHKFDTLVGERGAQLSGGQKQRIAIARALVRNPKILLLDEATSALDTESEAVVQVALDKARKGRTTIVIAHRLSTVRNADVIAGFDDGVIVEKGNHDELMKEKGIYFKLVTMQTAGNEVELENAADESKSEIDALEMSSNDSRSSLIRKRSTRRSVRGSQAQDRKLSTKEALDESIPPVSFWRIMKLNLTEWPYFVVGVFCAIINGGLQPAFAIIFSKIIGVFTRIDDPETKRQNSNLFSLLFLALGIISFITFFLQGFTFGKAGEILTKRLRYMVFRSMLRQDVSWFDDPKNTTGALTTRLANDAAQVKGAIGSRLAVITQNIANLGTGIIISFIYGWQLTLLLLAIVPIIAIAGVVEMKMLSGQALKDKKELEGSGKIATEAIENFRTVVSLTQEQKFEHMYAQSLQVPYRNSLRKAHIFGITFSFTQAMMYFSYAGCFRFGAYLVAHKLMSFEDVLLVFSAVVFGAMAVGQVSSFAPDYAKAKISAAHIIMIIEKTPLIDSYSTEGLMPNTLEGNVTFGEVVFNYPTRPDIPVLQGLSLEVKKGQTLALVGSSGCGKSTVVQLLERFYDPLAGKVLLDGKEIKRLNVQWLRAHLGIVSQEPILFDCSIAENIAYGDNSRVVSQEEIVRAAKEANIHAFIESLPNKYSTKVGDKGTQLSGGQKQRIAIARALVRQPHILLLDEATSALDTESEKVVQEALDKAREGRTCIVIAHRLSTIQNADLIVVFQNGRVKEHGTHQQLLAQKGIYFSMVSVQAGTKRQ

SMILES: CCC(C)N(C)C(=O)c1cc2ccccc2c(-c2ccccc2Cl)n1 (centres unmarked) [PK11195]
- Viability of subsets cultured with PK11195 alone ([1]; PK11195 without daunorubicin, 44 hours culture): does not impair viability
- Cell death of CMhi and EMhi on MDR-1 inhibition during daunorubicin culture ([1]; daunorubicin with PK11195, 44 hours culture): increased cell death

SMILES: COc1cccc2c1C(=O)c1c(O)c3c(c(O)c1C2=O)C[C@@](O)(C(C)=O)C[C@@H]3O[C@H]1C[C@H](N)[C@H](O)[C@H](C)O1 [daunorubicin]
- Apoptosis of CMhi and EMhi induced by culture with daunorubicin ([1]; daunorubicin 0.1 uM, 44 hours culture): resistant to apoptosis

- Inhibition of daunorubicin efflux from CMhi and EMhi (MDR-1): inhibition of efflux
SMILES: CC[C@]1(O)C[C@@H]2CN(CCc3c([nH]c4ccccc34)[C@@](C(=O)OC)(c3cc4c(cc3OC)N(C)[C@H]3[C@@](O)(C(=O)OC)[C@H](OC(C)=O)[C@]5(CC)C=CCN6CC[C@]43[C@@H]65)C2)C1 [vinblastine]
- Rh123 efflux in the presence of vinblastine [2]: blocked
